Values of other authors as cited in US7230101B1, “Synthesis of methotrexate-containing heterodimeric molecules” (GPC Biotech, Inc., priority 2002, dated 2007).

Legend:
[1] = molecular target: Glutathione-S-Transferase; conditions: read-out: Affinity, dissociation constant, known in the art
[2] = molecular target: 6 X His; conditions: dissociation constant, known in the art, read-out: Affinity
[3] = molecular target: Tet-R (Escherichia coli, UniProt P04483); conditions: dissociation constant, known in the art, read-out: Affinity
Sequence of Tet-R (P04483 whole entry): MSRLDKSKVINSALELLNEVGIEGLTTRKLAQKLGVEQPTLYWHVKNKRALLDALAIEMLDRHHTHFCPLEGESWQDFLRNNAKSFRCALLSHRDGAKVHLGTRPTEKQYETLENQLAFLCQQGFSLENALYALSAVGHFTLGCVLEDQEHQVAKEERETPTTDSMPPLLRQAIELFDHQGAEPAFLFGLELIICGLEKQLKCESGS

N[C@@H](CCC(=O)N[C@@H](CS)C(=O)NCC(=O)O)C(=O)O [Glutathione]
Kd [1]: 24000 nM

[Ni] [Ni]
Kd [2]: 800 nM

CN(C)[C@@H]1C(=O)C(C(N)=O)=C(O)[C@@]2(O)C(=O)C3=C(O)c4c(O)cccc4[C@@](C)(O)[C@H]3C[C@@H]12 [Tetracyclin]
Kd [3]: 24 nM
